In patent US20230026856A1, “HETEROCYCLIC COMPOUNDS AND METHODS OF USE THEREOF” (SPARCBIO LLC, priority 2020, published 2023):

What was measured:
KRAS G12C protein [1] = biological target: T1, KRAS G12C protein (Homo sapiens, UniProt P01116, G12C); assay: Nucleotide exchange assay, Method III (TR-FRET, association of KRAS G12C with Raf-RBD, SOS1-mediated exchange); format: biochemical; conditions: overnight (18 hr) incubation with GDP-bound KRAS G12C
Experimental: Method III. Inhibition of SOS1-mediated exchange of GDP for GTP on the KRAS G12C protein was measured in a biochemical assay that monitors association of KRAS G12C protein with the Ras-binding domain of Raf (Raf-RBD), where the association is coupled to exchange of GDP to GTP on the KRAS G12C protein. The assay was performed at WuXi AppTec (Shanghai, China). Compounds were serially diluted in 3-fold dilutions to 11 concentrations and spotted into the wells of an assay plate in a total volume of 150 nL DMSO per well. A 2× enzyme mix was prepared by diluting GDP-bound, His-tagged KRAS G12C to 25 nM in assay buffer. 10 μL/well of 2× enzyme mix was added to all wells, and the plate was sealed and incubated overnight (18 hr) at 23° C. 4×SOS1/GDP and 4×SOS1/GTP were prepared in assay buffer. 5 μL/well of 4×SOS1/GDP mix was added to negative control wells, 5 μL/well of 4×SOS1/GTP mix was added to the remaining wells, and the plate was further incubated at 23° C. for 1 hr. Finally, FLAG-tagged Raf-RBD is added to the reaction mixture along with a pair of FRET donor- and acceptor-conjugated antibodies specific for the FLAG-tagged Raf-RBD and His-tagged KRAS G12C proteins. A 4× Raf-RBD/Tb-anti-FLAG/D2-anti-His mix was prepared in assay buffer, and 5 μL/well of the mix was added to all wells, followed by incubation at room temperature for 2 hr. The TR-FRET signals, which increase with association of KRAS G12C and Raf-RBD, were measured on a Perkin Elmer Envision 2104 plate reader, and data were analyzed by non-linear regression to obtain IC50 values for inhibition by compounds. Table 2 includes results of the assay of Method III. ‘+++’ indicates IC50 values ≤300 nM, ‘++’ indicates IC50 values between 300 nM-3 μM, and ‘+’ indicates IC50 values ≥3 μM.
Target sequence in this assay (P01116 1-188 isoform P01116-2 G12C): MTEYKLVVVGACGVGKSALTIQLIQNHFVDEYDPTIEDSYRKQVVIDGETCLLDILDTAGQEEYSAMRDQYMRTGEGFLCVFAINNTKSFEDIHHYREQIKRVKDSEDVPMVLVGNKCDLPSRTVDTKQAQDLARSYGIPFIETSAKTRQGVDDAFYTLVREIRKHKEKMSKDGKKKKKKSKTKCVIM

KRAS G12C protein [2] = biological target: T1, KRAS G12C protein; assay: Nucleotide exchange assay, Method I (BODIPY-GDP fluorescence, SOS1-mediated exchange of GDP for GTP); format: biochemical; conditions: 30 minutes incubation with KRAS G12C/BODIPY-GDP
Experimental: Method I. A biochemical assay to assess activity of test compounds in inhibiting SOS1-mediated exchange of GDP for GTP on the KRAS G12C protein was performed at Reaction Biology Corporation (Malvern, Pa., USA). In this assay, exchange of BODIPY-GDP to GTP results in the decrease in BODIPY-GDP fluorescence. Briefly, recombinant KRAS G12C protein (aa 2-169, prepared by Reaction Biology) was labelled with 5× excess of BODIPY-GDP. Excess BODIPY-GDP was separated from loaded protein using a gravity desalting column. Compounds were incubated with 0.15 μM KRAS G12C/BODIPY-GDP for 30 minutes. A mixture of GTP (25 μM) and SOS1 (70 nM; aa 564-1049, prepared by Reaction Biology) was added to the reaction to initiate the nucleotide exchange reaction. Reaction progress was monitored in real time (Ex/Em=(483/530)) in CLARIOstar (BMG LabTech). After signal normalization, the data were fitted using the “one phase exponential decay” model in GraphPad Prism and rate constants obtained. Rate constants were converted to % activity values which were fit to a 4-parameter sigmoidal dose-response curve in Prism to derive IC50 values for inhibition of exchange activity by test compounds.
Target sequence in this assay (P01116 2-169 isoform P01116-2 G12C): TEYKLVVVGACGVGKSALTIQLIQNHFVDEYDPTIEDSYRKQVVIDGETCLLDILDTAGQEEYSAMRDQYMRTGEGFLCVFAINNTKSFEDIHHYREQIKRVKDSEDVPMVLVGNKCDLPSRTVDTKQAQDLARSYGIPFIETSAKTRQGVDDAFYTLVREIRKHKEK

MIA PaCa-2 = assay: Cell proliferation assay panel (Cell Titer-Glo), MIA PaCa-2; format: cell-based; conditions: Homo sapiens, MIA PaCa-2, 72 h
Experimental: (§1) Potency of compounds was determined in cell proliferation assays in a panel of cancer cell lines. Cells were seeded in 384-well plates (Corning, Cat. #3765) at specified densities in 40 μL of culture medium and incubated overnight at 37° C. in a 5% CO2 incubator (culture conditions). With a robotic dispenser, serially diluted test compounds were added in a volume of 20 nL DMSO to wells in the culture plate to achieve the final desired concentrations of test compounds, and the cells were further incubated in culture conditions for 72 hr. The assay was terminated by addition of 25 μL of Cell Titer-Glo reagent (Promega, Madison, Wis.) to each well. Contents were mixed, the plate was incubated for 10 min at room temperature and luminescence was measured. The IC50 value of each test compound was calculated with XLFit curve fitting software. Results are shown in Table 4. ‘+++’ indicates IC50 values ≤300 nM, ‘++’ indicates IC50 values between 300 nM-3 μM, and ‘+’ indicates IC50 values ≥3 μM.

[3] = system: Phosphorylation of ERK in NCI-H358 cells; assay: pERK assay, Method II (homogeneous TR-FRET, phospho-ERK Thr202/Tyr204); format: cell-based; conditions: Homo sapiens, 4 hr compound treatment
Experimental: Method II. Phosphorylation of ERK was assessed by a homogeneous TR-FRET assay (Advanced phospho-ERK (Thr202/Tyr204) cellular kit; Cat. #64AERPEH, Cisbio). In brief, NCI-H358 cells were seeded in a 384-well culture plate at a density of 6000 cells in 40 μL medium/well and grown overnight at 37° C. and 5% CO2. Each test compound was dosed in duplicate in a 10-dose 3-fold titration starting at 10 μM or 2 μM. The culture plate was then incubated for 4 hr in the incubator. At the end of the compound treatment, the medium was removed, 35 μL of lysis buffer was added to each well, and the plate was agitated on a plate shaker for 40 mins at 4° C. An antibody cocktail of phospho-ERK1/2 Eu Cryptate antibody and Phospho-ERK1/2 d2 antibody was prepared by separately diluting the antibodies 20-fold with detection buffer and then mixing them together. 3.4 μL of antibody cocktail was dispensed to each well of an empty 384-well white ProxiPlus assay plate (Perkin Elmer), and the plate briefly centrifuged. 13.6 μL of cell lysate was then added to the antibody-containing wells, and the plate was briefly centrifuged and then incubated 2 hr at room temperature. The plate was read on a fluorescence plate reader (Envision2104, Perkin Elmer), with an excitation wavelength of 337 nm and emission wavelengths of 615 nm and 665 nm. The IC50 value of each test compound was calculated with XLFit curve fitting software. Results are shown in Table 6. ‘+++’ indicates IC50 values ≤300 nM, ‘++’ indicates IC50 values between 300 nM-3 μM, and ‘+’ indicates IC50 values ≥3 μM.

NCI-H358 cells = assay: 3D cell proliferation assay (Cell Titer-Glo 3D); format: cell-based; conditions: Homo sapiens, NCI-H358, 168 h, NCI-H358, 3D (ultra-low attachment); 7 days
Experimental: NCI-H358 cells (ATCC® CRL-5807™) were plated in a 384-well Black/Clear Round Bottom Ultra-Low Attachment Microplate (Corning) in medium (RPMI-1640+10% FBS) at a density of 1000 cells in 50 μL per well, then incubated overnight at 37° C. and 5% CO2. Cells were treated with test compounds at 9 concentrations within a specified concentration range (e.g., 0.5 nM-10 μM) for generation of dose response curves. Test compounds were prepared by 1:3 serial dilution in DMSO from a specified starting concentration (e.g., 20 μM, 2 μM or 0.2 μM) and then added to wells of the assay plate in a total volume of 150 nL DMSO. The cells were further incubated at 37° C. and 5% CO2 for 7 days. Cell viability was assessed by adding 40 μL of Cell Titer-Glo® 3D reagent (Cat. No.: G9683, Promega) to each well and reading luminescence after mixing and incubation of the samples. The IC50 value of each test compound was calculated with XLFit curve fitting software.

NCI-H358 = assay: Cell proliferation assay panel (Cell Titer-Glo), NCI-H358; format: cell-based; conditions: Homo sapiens, 72 hr
Experimental: as §1

SW1573 = assay: Cell proliferation assay panel (Cell Titer-Glo), SW1573; format: cell-based; conditions: Homo sapiens, 72 hr
Experimental: as §1

NCI-H1373 = assay: Cell proliferation assay panel (Cell Titer-Glo), NCI-H1373; format: cell-based; conditions: Homo sapiens, 72 hr
Experimental: as §1

NCI-H2030 = assay: Cell proliferation assay panel (Cell Titer-Glo), NCI-H2030; format: cell-based; conditions: Homo sapiens, 72 hr
Experimental: as §1

KYSE-410 = assay: Cell proliferation assay panel (Cell Titer-Glo), KYSE-410; format: cell-based; conditions: Homo sapiens, 72 hr
Experimental: as §1

A549 = assay: Cell proliferation assay panel (Cell Titer-Glo), A549; format: cell-based; conditions: Homo sapiens, 72 hr
Experimental: as §1

NCI-H2122 = assay: Cell proliferation assay panel (Cell Titer-Glo), NCI-H2122; format: cell-based; conditions: Homo sapiens, 72 hr
Experimental: as §1

| SMILES | IC50 (KRAS G12C protein [1]) [nM] | IC50 (KRAS G12C protein [2]) [nM] | IC50 (MIA PaCa-2) [nM] | IC50 [3] [nM] | IC50 (NCI-H358 cells) [nM] | IC50 (NCI-H358) [nM] | IC50 (SW1573) [nM] | IC50 (NCI-H1373) [nM] | IC50 (NCI-H2030) [nM] | IC50 (KYSE-410) [nM] | IC50 (A549) [nM] | IC50 (NCI-H2122) [nM] |
| --- | --- | --- | --- | --- | --- | --- | --- | --- | --- | --- | --- | --- |
| C=CC(=O)N1CCC(n2c(=O)c(=O)n(-c3c(C)ccnc3C(C)C)c3nc(-c4c(O)cccc4F)c(F)cc32)CC1 (single isomer, unassigned) [1 (Isomer A), 1-(1-acryloylpiperidin-4-yl)-7-fluoro-6-(2-fluoro-6-hydroxyphenyl)-4-(2-isopropyl-4-methylpyridin-3-yl)-1,4-dihydropyrido[2,3-b]pyrazine-2,3-dione] | 300 to 3000 | 300 to 3000 |  |  |  |  |  |  |  |  |  |  |
| C=CC(=O)N1CCN(c2c(S(C)(=O)=O)c(=O)n(-c3c(C)ccnc3C(C)C)c3nc(-c4c(C)ccc5[nH]ncc45)c(F)cc23)CC1 (single isomer, unassigned) [124 (Isomer A), 4-(4-acryloylpiperazin-1-yl)-6-fluoro-1-(2-isopropyl-4-methylpyridin-3-yl)-7-(5-methyl-1H-indazol-4-yl)-3-(methylsulfonyl)-1,8-naphthyridin-2(1H)-one] | ≤ 300 |  | 300 to 3000 | 300 to 3000 |  |  |  |  |  |  |  |  |
| C=CC(=O)N1CCN(c2c(S(C)(=O)=O)c(=O)n(-c3c(C)ccnc3C(C)C)c3nc(-c4cccc5sc(N)nc45)c(F)cc23)CC1 (single isomer, unassigned) [250 (Isomer A), 4-(4-acryloylpiperazin-1-yl)-7-(2-aminobenzo[d]thiazol-4-yl)-6-fluoro-1-(2-isopropyl-4-methylpyridin-3-yl)-3-(methylsulfonyl)-1,8-naphthyridin-2(1H)-one] | ≤ 300 |  | 300 to 3000 | ≤ 300 |  |  |  |  |  |  |  |  |
| C=CC(=O)N1CCC(n2c(=O)c(=O)n(-c3c(C)ccnc3C(C)C)c3nc(-c4c(O)cccc4F)c(F)cc32)CC1 (single isomer, unassigned) [1 (Isomer B), 1-(1-acryloylpiperidin-4-yl)-7-fluoro-6-(2-fluoro-6-hydroxyphenyl)-4-(2-isopropyl-4-methylpyridin-3-yl)-1,4-dihydropyrido[2,3-b]pyrazine-2,3-dione] |  | ≥ 3000 |  |  |  |  |  |  |  |  |  |  |
| C=CC(=O)N1CCN(c2c(S(C)(=O)=O)c(=O)n(-c3c(C)ccnc3C(C)C)c3c(F)c(-c4c(C)ccc5[nH]ncc45)c(Cl)cc23)CC1 (single isomer, unassigned) [187 (Isomer C), 4-(4-acryloylpiperazin-1-yl)-6-chloro-8-fluoro-1-(2-isopropyl-4-methylpyridin-3-yl)-7-(5-methyl-1H-indazol-4-yl)-3-(methylsulfonyl)quinolin-2(1H)-one] | ≤ 300 |  | 300 to 3000 |  | ≤ 100 |  |  |  |  |  |  |  |
| C=CC(=O)N1CCN(c2c(C(=O)NC)c(=O)n(-c3c(C)ccnc3C(C)C)c3nc(-c4c(O)cccc4F)c(F)cc23)CC1 (single isomer, unassigned) [84 (Isomer B), 4-(4-acryloylpiperazin-1-yl)-6-fluoro-7-(2-fluoro-6-hydroxyphenyl)-1-(2-isopropyl-4-methylpyridin-3-yl)-N-methyl-2-oxo-1,2-dihydro-1,8-naphthyridine-3-carboxamide] |  |  | 300 to 3000 |  |  | ≤ 300 | ≥ 3000 | ≥ 3000 | ≥ 3000 | ≥ 3000 | ≥ 3000 | ≥ 3000 |
| C=CC(=O)N1CCN(c2c(C(=O)NCC)c(=O)n(-c3c(C)ccnc3C(C)C)c3nc(-c4c(O)cccc4F)c(F)cc23)CC1 (single isomer, unassigned) [293 (Isomer A), 4-(4-acryloylpiperazin-1-yl)-N-ethyl-6-fluoro-7-(2-fluoro-6-hydroxyphenyl)-1-(2-isopropyl-4-methylpyridin-3-yl)-2-oxo-1,2-dihydro-1,8-naphthyridine-3-carboxamide] | ≤ 300 |  | 300 to 3000 | 300 to 3000 | ≤ 100 |  |  |  |  |  |  |  |
| C=CC(=O)N1CCN(c2c(S(C)(=O)=O)c(=O)n(-c3c(C)ccnc3C(C)C)c3nc(-c4c(O)cccc4F)c(F)cc23)CC1 (single isomer, unassigned) [123 (Isomer A), 4-(4-acryloylpiperazin-1-yl)-6-fluoro-7-(2-fluoro-6-hydroxyphenyl)-1-(2-isopropyl-4-methylpyridin-3-yl)-3-(methylsulfonyl)-1,8-naphthyridin-2(1H)-one] | ≤ 300 |  | 300 to 3000 | ≤ 300 | ≤ 100 | ≤ 300 | ≥ 3000 | ≥ 3000 | 300 to 3000 | ≥ 3000 | ≥ 3000 | 300 to 3000 |
